The test system of data set [1] is wild-type AB strain zebrafish. The data set is described as follows: Zebrafish tail amputation model, wound repair efficacy (caudal fin area). It counts as in vivo. As to conditions: I-8 at 1, 3, and 9 µg/mL, 48 hrs; compared with the modeling group, statistical significance. On the procedure: Experimental animal: Healthy wild-type AB strain zebrafish at 3 dpf (days post fertilization)
Evaluation of wound repair efficacy: Healthy AB strain zebrafish were taken as experimental animal, and randomly divided into blank control group, modeling group, positive control group, and sample group. The zebrafish in the blank control group were treated with culture water; the zebrafish in the modeling group were treated with culture water after cutting the caudal fin; the zebrafish in the positive control group and sample group were treated with 600 µg/mL hyaluronic acid and I-8 with different concentrations (1, 3, 9 µg/mL) respectively after cutting the caudal fin. The larva fish in above groups were placed in a constant temperature incubator at 28.5 °C and kept in continuous darkness for 48 hrs, with the culture medium changed once every 24 hrs. Image-Pro Plus software was used to calculate the area of the caudal fin of each group of zebrafish. The data were statistically analyzed using GraphPad software.

A short description of data set [2]: Permeability into skin using a Franz diffusion cell. In kind it is in vitro ADME, Bama miniature pig. The settings on record: for Concentration of the compound to be test in the skin, Mean / Concentration of the compound to be test in the skin, Skin-1 / Concentration of the compound to be test in the skin, Skin-2 / Concentration of the compound to be test in the skin, Skin-3: 0.1 mg/mL solution, 32 °C. On the procedure:
Experimental materials: skin from the back of a one-month-old Bama miniature pig, 0.8-1.0 mm thick; 0.1 mg/mL solution of the compound to be test, dissolvent: 50 mM Sodium Phosphate Buffer (PB) buffer solution containing 20% ethanol.
Experimental procedure: • 1. 400 uL solution of the compound to be test was pipetted into the feed cell, repeated three times. • 2. About 7600 uL of 50 mM PB buffer solution was added to the corresponding receiving cell. • 3. The compound to be test was permeated at 32 °C for 2 hrs and 6 hrs. • 4. At 2 hrs and 6 hrs, the skin was washed with 50 mM PB buffer solution containing 20% ethanol, the skin from the permeation area was removed and homogenized, and acetonitrile solution containing internal standard was added. • 5. Centrifugation was performed, 100 µL of the supernatant was taken and added into 100 µL of purified water, after mixing uniformly, quantitative analysis was performed by LC-MS/MS.

The subject of a further data set is β-galactosidase. The data set is described as follows: Zebrafish oxidative aging model (menadione), β-galactosidase activity. In kind it is in vivo. As to conditions: I-8 at 22.2 µg/mL, 22 hrs, 4 µM menadione; compared with the modeling group, statistical significance. On the procedure:
(§1) Experimental animal: Healthy wild-type AB strain zebrafish at 48 hpf (hours post-fertilization)
(§2) Healthy AB strain zebrafish were taken as experimental animal. A zebrafish oxidative aging model was constructed using chemical mutagenesis with 4 µM menadione as the modeling drug. Fucoxanthin was used as a positive control compound. After treating the zebrafish oxidative aging model with different concentrations of I-8 for 22 hrs, changes in the reactive oxygen species (ROS) content, β-galactosidase activity, and the expression of three antioxidant and anti-aging related genes (Cu/Zn-sod, Mn-sod, and ampk) were respectively detected and statistically analyzed.
(§3) During the experiment, the modeling drug, positive compound, and I-8 were dispersed together in the culture water of zebrafish. […] Cell ROX™ Deep Red fluorescent probes and β-galactosidase staining kits were used to specifically label ROS and β-galactosidase in the fish, respectively, and the staining intensity was quantified using Image-Pro Plus software. After extracting RNA from the whole fish, the expression changes of three genes (Cu/Zn-sod, Mn-sod, and ampk) in the fish were detected at the mRNA level using Quantitative Real-time PCR (RT-qPCR). The data were statistically analyzed using GraphPad software.

In another data set the test system is Cu/Zn-sod. Nature of the data set: Zebrafish oxidative aging model (menadione), Cu/Zn-sod gene expression by RT-qPCR. As to conditions: I-8 at 2.5, 7.5, and 22.2 µg/mL, 22 hrs, 4 µM menadione; compared to the modeling group, statistical significance. It counts as in vivo. On the procedure:
as §1, §2, §3
On the technique in general: In qPCR the cycle at which signal appears reflects the starting amount.

The next data set concerns COL4A1. Nature of the data set: Collagen IV gene expression in HaCaT human immortalized keratinocytes. In kind it is cell-based. As to conditions: 24 hrs, dose-dependent. An excerpt:
Skin fragility is partly attributed to changes in hemidesmosomes and the expression downregulation of various collagen proteins (Collagen I, III, IV, VII) or laminins (such as LN-5) at the dermal-epidermal junction. LN-5 has been proven to be a component of anchoring fibers in the basement membrane of the skin, cornea, conjunctiva, and other tissues. LN-5 participates in cell-cell interactions through the mediation of integrins and proteoglycans, thereby playing a crucial role in cell adhesion, growth, migration, and differentiation. The appearance of wrinkles is closely related to the normal synthesis and expression of collagen and laminins. Therefore, the increase of the above collagen content and LN-5 can achieve a certain role in resisting wrinkles, and plays an important role in the aging process of the skin. Therefore, the anti-wrinkle effect of the compound to be tested was evaluated by detecting the level of Collage I protein of […] by ELISA, and detecting the transcription levels of epidermal cells (keratinocytes) III, IV, VII and LN -5 by Real-Time PCR. The following Test Examples 8-1 and 8-2 evaluated the anti-wrinkle efficacy of compounds using HaCaT human immortalized keratinocytes and HSF human skin fibroblasts. […]

The values that follow come from patent EP4803511A1, “SMALL MOLECULE COMPOUND HAVING SULFONIC ACID OR SULFINIC ACID LACTONE STRUCTURE, COMPOSITION AND USE THEREOF” (Hangzhou Phecdamed Co., Ltd., priority 2023, dated 2025).

Turning to `O=S1(=O)Oc2cc(O)ccc2-c2ccc(O)cc21` [Compound I-8], the caudal fin area result in data set [1] is recorded as “increased”. In addition, in data set [2] (Time 2 h), the “Concentration of the compound to be test in the skin, Mean” value was determined as 7167 ng/g; the “Concentration of the compound to be test in the skin, Skin-1” value is 7450 ng/g; the “Concentration of the compound to be test in the skin, Skin-2” value worked out at 6600 ng/g; the “Concentration of the compound to be test in the skin, Skin-3” value is recorded as 7450 ng/g. In data set [2] (Time 6 h), the “Concentration of the compound to be test in the skin, Mean” value was 11417 ng/g; the “Concentration of the compound to be test in the skin, Skin-1” value is 13650 ng/g; the “Concentration of the compound to be test in the skin, Skin-2” value was determined as 10450 ng/g; the “Concentration of the compound to be test in the skin, Skin-3” value was found to be 10150 ng/g. This molecule also registered a permeation amount in data set [2] (within 6 hours) of 10 µg/g. Also, the β-galactosidase activity entry in the data set with β-galactosidase is recorded as “downregulated”. Moreover, the “expression of Cu/Zn-sod gene” value with Cu/Zn-sod is “upregulated”. Also, in the data set on COL4A1, the COL4A1 gene expression result is “upregulate”.
